Experimental data reported in US20210244858A1, “SOFT TISSUE FILLER COMPOSITION WITH HYALURONIC ACID AND BENZYL ALCOHOL” (Prollenium Medical Technologies, Inc., priority 2018, published 2021).
Read-outs that look alike come from different tables or passages of the source.

How the values were obtained:
[1] = 0.05% to 5% solution; cited from earlier work
[2] = format: physicochemical; conditions: for Benzyl alcohol mg/g (55° C.) / Lidocaine mg/g (45° C.): in REVANESSE dermal filler
Description: The benzyl alcohol product was held for 12 weeks at 55° C. which approximates 2 years shelf life; the amount of benzyl alcohol degraded by only 5.75%. In contrast, the amount of lidocaine degraded by 11.61% over 12 weeks at 45° C., which approximates to 1 year shelf life.

[3] = 5% solution, animal studies; cited from earlier work
[4] = cited from earlier work

| SMILES | anesthetic effectiveness [1] | stability compared with lidocaine [2] | Benzyl alcohol mg/g (55° C.) ([2]; 0 weeks) [mg/g] | Benzyl alcohol mg/g (55° C.) ([2]; 4 weeks) [mg/g] | Benzyl alcohol mg/g (55° C.) ([2]; 8 weeks) [mg/g] | amount degraded ([2]; 12 weeks, 8.7 mg/g) [%] | Benzyl alcohol mg/g (55° C.) ([2]; 12 weeks) [mg/g] | safety [3] | injection pain and anesthesia duration ([4]; in combination with lidocaine (1%)) | duration of anesthetic effect compared with lidocaine ([4]; in vivo) | injection pain compared with plain lidocaine ([4]; injection) | Lidocaine mg/g (45° C.) ([2]; 0 weeks) [mg/g] | Lidocaine mg/g (45° C.) ([2]; 4 weeks) [mg/g] | Lidocaine mg/g (45° C.) ([2]; 8 weeks) [mg/g] | amount degraded ([2]; 12 weeks, 3.1 mg/g) [%] | Lidocaine mg/g (45° C.) ([2]; 12 weeks) [mg/g] |
| --- | --- | --- | --- | --- | --- | --- | --- | --- | --- | --- | --- | --- | --- | --- | --- | --- |
| OCc1ccccc1 [Benzyl alcohol, benzyl alcohol] | considered somewhat effect | better than lidocaine | 8.7 | 8.7 | 8.6 | 5.75 | 8.2 | deemed safe | reduces injection pain as well as anesthesia duration | shorter duration than lidocaine | significantly less painful | – | – | – | – | – |
| CCN(CC)CC(=O)Nc1c(C)cccc1C [Lidocaine, lidocaine, reference compound] | – | – | – | – | – | – | – | – | – | – | – | 3.1 | 2.9 | 2.82 | 11.61 | 2.74 |
